Source: patent US11208412B2 (DAEGU-GYEONGBUK MEDICAL INNOVATION FOUNDATION, priority 2017, dated 2021)

Assays:
Experiment in all cases: Kinase selectivity, DiscoverX scanMAX Kinase assay panel (% control)
Format in all cases: binding
[1] = molecular target: T1, kinases of the scanMAX Kinase assay panel (Homo sapiens, UniProt P42336, Q546K); settings: PIK3CA(Q546K); 1 uM
T1 construct: purchased DiscoverX Co. (contract measurement) scanMAX Kinase assay panel
How it was run: (§1)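 Single-point screen, 1 uM cpd in DMSO. % ctrl = (cpd − pos ctrl)/(neg ctrl − pos ctrl)×100; pos ctrl = 0%, DMSO neg ctrl = 100%. Hit cutoff <35%.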

[2] = molecular target: T2, kinases of the scanMAX Kinase assay panel (Homo sapiens, UniProt P35968); settings: kinase VEGFR2; 1 uM in DMSO
T2 construct: purchased DiscoverX Co. (contract measurement) scanMAX Kinase assay panel
How it was run: as §1

[3] = molecular target: T3, kinases of the scanMAX Kinase assay panel (Homo sapiens, UniProt Q92630); settings: DYRK2; 1 uM
T3 construct: purchased DiscoverX Co. (contract measurement) scanMAX Kinase assay panel
T3 sequence (Q92630 1-601): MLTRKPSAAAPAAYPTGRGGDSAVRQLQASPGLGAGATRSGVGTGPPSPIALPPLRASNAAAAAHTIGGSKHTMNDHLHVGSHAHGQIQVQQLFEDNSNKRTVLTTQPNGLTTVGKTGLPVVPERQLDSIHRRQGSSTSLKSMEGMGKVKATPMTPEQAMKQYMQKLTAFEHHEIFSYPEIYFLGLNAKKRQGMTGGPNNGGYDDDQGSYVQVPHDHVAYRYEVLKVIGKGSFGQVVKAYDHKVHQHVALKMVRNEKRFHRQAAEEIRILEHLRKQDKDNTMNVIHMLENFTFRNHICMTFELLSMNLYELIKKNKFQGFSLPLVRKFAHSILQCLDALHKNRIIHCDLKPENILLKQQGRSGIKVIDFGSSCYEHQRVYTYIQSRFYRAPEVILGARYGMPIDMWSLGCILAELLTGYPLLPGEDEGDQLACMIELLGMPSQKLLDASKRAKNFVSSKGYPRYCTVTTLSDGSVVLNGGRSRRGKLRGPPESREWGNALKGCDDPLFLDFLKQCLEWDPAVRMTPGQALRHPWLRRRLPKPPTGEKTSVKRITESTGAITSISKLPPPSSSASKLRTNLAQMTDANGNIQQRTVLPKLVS
How it was run: as §1

[4] = molecular target: T4, kinases of the scanMAX Kinase assay panel (Homo sapiens, UniProt Q99755); settings: PIP5K1A; 1 uM
T4 construct: purchased DiscoverX Co. (contract measurement) scanMAX Kinase assay panel
How it was run: as §1

[5] = molecular target: T5, kinases of the scanMAX Kinase assay panel (Homo sapiens, UniProt P54646); settings: AMPK-alpha2; 1 uM
T5 construct: purchased DiscoverX Co. (contract measurement) scanMAX Kinase assay panel
How it was run: as §1

[6] = molecular target: T6, kinases of the scanMAX Kinase assay panel (Homo sapiens, UniProt P09619); settings: PDGFRB; 1 uM
T6 construct: purchased DiscoverX Co. (contract measurement) scanMAX Kinase assay panel
How it was run: as §1

[7] = molecular target: T7, kinases of the scanMAX Kinase assay panel (Homo sapiens, UniProt P00519, H396P); settings: 1 uM
T7 construct: purchased DiscoverX Co. (contract measurement) scanMAX Kinase assay panel
How it was run: as §1

[8] = molecular target: T8, kinases of the scanMAX Kinase assay panel (Homo sapiens, UniProt Q16816); settings: PHKG1; 1 uM
T8 construct: purchased DiscoverX Co. (contract measurement) scanMAX Kinase assay panel
How it was run: as §1

[9] = molecular target: T9, kinases of the scanMAX Kinase assay panel (Homo sapiens, UniProt P78362); settings: kinase SRPK2; 1 uM in DMSO
T9 construct: purchased DiscoverX Co. (contract measurement) scanMAX Kinase assay panel
How it was run: as §1

[10] = molecular target: T10, kinases of the scanMAX Kinase assay panel (Homo sapiens, UniProt Q86Z02); settings: HIPK1; 1 uM
T10 construct: purchased DiscoverX Co. (contract measurement) scanMAX Kinase assay panel
How it was run: as §1

[11] = molecular target: T11, kinases of the scanMAX Kinase assay panel (Homo sapiens, UniProt Q04771); settings: ACVR1; 1 uM
T11 construct: purchased DiscoverX Co. (contract measurement) scanMAX Kinase assay panel
T11 sequence (Q04771 21-509): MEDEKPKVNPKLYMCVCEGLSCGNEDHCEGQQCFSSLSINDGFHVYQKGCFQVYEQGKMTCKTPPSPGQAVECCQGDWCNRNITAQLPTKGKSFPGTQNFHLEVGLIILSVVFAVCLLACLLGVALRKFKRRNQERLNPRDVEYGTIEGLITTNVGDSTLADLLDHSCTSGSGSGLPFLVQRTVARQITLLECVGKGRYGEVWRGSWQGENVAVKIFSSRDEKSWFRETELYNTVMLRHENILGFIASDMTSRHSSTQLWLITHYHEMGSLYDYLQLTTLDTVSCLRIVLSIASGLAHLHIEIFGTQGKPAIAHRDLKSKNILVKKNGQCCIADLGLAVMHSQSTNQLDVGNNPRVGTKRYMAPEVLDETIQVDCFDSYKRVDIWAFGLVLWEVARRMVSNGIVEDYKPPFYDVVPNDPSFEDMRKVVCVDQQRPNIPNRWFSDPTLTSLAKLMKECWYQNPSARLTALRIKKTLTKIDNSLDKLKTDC
How it was run: as §1

[12] = molecular target: T12, kinases of the scanMAX Kinase assay panel (Homo sapiens, UniProt Q9NYY3); settings: PLK2; 1 uM
T12 construct: purchased DiscoverX Co. (contract measurement) scanMAX Kinase assay panel
How it was run: as §1

[13] = molecular target: T13, kinases of the scanMAX Kinase assay panel (Homo sapiens, UniProt P24941); settings: CDK2; 1 uM
T13 construct: purchased DiscoverX Co. (contract measurement) scanMAX Kinase assay panel
How it was run: as §1

[14] = molecular target: T14, kinases of the scanMAX Kinase assay panel (Homo sapiens, UniProt O96013); settings: PAK4; 1 uM
T14 construct: purchased DiscoverX Co. (contract measurement) scanMAX Kinase assay panel
How it was run: as §1

T5 sequence (P54646 whole entry): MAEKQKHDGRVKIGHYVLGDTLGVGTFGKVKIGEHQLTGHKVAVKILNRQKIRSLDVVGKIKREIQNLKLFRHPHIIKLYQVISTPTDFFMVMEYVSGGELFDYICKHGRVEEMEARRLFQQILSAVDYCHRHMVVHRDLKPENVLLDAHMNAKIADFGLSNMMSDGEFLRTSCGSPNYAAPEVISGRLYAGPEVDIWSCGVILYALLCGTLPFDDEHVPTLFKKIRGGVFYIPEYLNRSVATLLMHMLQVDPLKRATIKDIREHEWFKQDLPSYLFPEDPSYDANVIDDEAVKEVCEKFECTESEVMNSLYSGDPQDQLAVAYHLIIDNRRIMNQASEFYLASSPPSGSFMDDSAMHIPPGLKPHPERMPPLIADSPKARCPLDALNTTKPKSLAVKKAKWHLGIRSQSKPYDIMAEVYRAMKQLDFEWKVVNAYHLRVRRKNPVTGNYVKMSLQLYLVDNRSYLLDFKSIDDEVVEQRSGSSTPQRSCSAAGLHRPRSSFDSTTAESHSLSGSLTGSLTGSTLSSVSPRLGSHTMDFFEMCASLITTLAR
T12 sequence (Q9NYY3 whole entry): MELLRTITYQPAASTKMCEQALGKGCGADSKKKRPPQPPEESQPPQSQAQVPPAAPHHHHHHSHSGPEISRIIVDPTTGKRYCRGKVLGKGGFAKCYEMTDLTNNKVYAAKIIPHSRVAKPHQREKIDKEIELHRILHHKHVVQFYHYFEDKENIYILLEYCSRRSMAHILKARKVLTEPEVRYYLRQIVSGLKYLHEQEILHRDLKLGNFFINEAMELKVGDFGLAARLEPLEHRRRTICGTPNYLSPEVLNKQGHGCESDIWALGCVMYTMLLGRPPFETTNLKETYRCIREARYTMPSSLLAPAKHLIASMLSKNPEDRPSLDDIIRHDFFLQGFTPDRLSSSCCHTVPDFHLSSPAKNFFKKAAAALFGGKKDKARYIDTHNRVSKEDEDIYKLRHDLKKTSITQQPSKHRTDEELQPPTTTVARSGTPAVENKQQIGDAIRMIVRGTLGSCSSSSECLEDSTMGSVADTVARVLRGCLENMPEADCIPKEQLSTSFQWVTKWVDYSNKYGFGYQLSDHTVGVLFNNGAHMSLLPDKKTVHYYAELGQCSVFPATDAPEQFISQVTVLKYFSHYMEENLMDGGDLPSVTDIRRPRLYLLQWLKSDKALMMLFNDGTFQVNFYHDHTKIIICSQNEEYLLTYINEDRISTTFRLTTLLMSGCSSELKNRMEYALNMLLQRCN
T10 sequence (Q86Z02 whole entry): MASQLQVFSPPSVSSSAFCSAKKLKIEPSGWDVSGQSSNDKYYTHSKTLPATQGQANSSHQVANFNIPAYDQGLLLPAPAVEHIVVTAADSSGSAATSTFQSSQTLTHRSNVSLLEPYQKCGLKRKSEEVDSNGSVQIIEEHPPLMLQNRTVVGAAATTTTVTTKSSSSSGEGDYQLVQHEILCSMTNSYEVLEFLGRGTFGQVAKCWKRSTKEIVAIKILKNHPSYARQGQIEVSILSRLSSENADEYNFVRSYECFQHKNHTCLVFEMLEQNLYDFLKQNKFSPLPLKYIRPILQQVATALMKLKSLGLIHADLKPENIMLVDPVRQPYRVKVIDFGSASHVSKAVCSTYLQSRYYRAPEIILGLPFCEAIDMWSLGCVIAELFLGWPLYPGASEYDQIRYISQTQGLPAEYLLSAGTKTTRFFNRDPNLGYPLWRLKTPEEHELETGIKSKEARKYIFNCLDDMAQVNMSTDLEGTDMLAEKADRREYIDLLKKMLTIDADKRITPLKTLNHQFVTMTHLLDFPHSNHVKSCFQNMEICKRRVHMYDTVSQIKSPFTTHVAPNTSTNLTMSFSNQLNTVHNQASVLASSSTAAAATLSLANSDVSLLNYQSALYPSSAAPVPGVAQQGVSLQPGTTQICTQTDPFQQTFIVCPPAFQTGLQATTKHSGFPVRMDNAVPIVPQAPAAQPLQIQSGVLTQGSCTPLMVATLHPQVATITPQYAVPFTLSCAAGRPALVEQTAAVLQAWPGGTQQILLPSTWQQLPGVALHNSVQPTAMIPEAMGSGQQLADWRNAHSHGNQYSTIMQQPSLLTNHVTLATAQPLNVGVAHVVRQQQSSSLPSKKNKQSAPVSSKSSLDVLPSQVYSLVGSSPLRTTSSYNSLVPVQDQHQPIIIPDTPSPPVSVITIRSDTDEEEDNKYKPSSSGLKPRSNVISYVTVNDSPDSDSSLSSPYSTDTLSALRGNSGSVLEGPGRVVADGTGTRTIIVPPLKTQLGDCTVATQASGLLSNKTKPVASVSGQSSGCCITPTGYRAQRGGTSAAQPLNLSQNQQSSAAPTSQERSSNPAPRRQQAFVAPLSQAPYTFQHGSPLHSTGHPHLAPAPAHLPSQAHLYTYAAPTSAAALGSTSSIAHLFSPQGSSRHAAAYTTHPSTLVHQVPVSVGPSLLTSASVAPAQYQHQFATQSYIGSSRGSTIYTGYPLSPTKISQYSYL
T1 sequence (P42336 whole entry Q546K): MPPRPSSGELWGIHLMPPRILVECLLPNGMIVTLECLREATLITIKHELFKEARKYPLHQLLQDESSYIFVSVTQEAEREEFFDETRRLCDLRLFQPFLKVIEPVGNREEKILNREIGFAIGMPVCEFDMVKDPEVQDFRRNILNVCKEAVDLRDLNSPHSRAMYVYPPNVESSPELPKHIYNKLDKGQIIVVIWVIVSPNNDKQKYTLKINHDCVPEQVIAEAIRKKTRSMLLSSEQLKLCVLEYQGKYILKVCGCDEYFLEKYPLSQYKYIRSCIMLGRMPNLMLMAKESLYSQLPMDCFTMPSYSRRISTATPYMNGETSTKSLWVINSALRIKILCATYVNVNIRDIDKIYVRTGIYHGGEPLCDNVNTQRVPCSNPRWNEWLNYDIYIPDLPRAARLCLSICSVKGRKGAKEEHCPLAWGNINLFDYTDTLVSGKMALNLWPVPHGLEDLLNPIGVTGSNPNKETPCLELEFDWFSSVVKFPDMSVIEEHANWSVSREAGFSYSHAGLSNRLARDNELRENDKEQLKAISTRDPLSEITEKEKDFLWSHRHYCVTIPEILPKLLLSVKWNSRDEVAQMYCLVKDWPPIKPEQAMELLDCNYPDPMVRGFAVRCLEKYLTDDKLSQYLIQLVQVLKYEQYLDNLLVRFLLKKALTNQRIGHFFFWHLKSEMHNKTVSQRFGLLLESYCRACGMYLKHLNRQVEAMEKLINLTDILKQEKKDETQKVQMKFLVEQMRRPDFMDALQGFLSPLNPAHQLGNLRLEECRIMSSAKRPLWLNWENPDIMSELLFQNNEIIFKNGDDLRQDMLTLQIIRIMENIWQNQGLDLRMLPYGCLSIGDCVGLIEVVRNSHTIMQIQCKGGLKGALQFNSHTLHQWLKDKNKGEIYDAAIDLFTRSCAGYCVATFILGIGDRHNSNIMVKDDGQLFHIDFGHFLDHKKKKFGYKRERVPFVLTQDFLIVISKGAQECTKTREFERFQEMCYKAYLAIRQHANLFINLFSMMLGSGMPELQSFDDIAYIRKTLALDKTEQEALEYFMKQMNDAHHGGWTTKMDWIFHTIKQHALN
T14 sequence (O96013 whole entry): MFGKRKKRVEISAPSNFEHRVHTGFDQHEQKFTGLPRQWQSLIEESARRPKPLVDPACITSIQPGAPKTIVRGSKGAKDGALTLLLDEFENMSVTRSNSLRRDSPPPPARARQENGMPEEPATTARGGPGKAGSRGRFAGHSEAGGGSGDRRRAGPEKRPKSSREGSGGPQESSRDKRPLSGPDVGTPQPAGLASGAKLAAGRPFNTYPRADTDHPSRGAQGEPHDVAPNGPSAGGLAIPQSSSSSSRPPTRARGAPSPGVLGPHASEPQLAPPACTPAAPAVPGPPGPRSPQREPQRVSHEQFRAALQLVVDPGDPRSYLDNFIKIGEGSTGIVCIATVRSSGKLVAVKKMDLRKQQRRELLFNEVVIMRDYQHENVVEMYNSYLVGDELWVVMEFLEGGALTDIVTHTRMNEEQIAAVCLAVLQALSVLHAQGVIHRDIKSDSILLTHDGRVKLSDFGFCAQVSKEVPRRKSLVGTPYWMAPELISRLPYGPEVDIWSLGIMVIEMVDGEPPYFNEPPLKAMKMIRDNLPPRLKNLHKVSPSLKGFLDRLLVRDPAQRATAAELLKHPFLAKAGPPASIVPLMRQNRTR
T4 sequence (Q99755 whole entry): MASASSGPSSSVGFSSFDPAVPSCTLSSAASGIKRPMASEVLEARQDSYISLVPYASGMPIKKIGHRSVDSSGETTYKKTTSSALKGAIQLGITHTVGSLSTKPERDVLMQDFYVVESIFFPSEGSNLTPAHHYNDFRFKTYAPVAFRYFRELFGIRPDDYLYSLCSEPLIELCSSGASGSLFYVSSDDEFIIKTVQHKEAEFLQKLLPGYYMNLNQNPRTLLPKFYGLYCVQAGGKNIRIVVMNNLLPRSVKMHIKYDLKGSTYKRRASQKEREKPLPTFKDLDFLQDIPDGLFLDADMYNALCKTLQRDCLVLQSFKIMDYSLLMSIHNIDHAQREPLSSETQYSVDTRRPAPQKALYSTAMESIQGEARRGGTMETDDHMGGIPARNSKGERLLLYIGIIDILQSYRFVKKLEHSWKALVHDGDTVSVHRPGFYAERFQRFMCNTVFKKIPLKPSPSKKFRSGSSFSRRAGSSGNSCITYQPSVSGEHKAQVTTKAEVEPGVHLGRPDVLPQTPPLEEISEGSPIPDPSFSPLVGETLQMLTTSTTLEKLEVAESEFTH
T8 sequence (Q16816 whole entry): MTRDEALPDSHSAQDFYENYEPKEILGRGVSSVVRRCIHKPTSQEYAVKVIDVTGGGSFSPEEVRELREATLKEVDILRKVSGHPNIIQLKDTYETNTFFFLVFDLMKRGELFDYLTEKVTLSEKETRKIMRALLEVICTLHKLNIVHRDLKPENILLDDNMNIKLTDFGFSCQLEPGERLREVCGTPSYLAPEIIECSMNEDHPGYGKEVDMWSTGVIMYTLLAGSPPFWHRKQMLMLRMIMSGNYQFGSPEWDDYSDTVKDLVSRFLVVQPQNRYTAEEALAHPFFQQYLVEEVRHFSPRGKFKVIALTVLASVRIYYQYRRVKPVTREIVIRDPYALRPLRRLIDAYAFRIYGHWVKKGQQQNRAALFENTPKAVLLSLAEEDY

SMILES	remaining binding at 1 µM [1]	remaining binding at 1 µM [2]	remaining binding at 1 µM [3]	remaining binding at 1 µM [4]	remaining binding at 1 µM [5]	remaining binding at 1 µM [6]	remaining binding at 1 µM ([7]; ABL1(H396P)-nonphosphorylated)	remaining binding at 1 µM ([7]; ABL1(H396P)-phosphorylated)	remaining binding at 1 µM [8]	remaining binding at 1 µM [9]	remaining binding at 1 µM [10]	remaining binding at 1 µM [11]	remaining binding at 1 µM [12]	remaining binding at 1 µM [13]	remaining binding at 1 µM [14]
CCNc1nc(Nc2ccc(C(=O)N3CCC(N4CCOCC4)CC3)cc2OC)nc2[nH]cc(C(F)(F)F)c12 [Example 104, (4-((4-(ethylamino)-5-(trifluoromethyl)-7H-pyrrolo[2,3-d]pyrimidine-2-yl)amino)-3-methoxyphenyl)(4-morpholinopiperidine-1-yl)methanone]	87%	73%	25%	100%	100%	60%	96%	74%	1%	74%	13%	100%	100%	98%	100%
CC1(Nc2nc(Nc3cnn([C@H]4CCN(C5COC5)C[C@@H]4F)c3Cl)nc3[nH]cc(C#N)c23)CC1 [Example 52, 2-((5-chloro-1-((3S,4S)-3-fluoro-1-(oxetane-3-yl)piperidine-4-yl)-1H-pyrazole-4-yl)amino)((1-methylcyclopropyl)amino)-7H-pyrrolo[2,3-d]pyrimidine-5-carbonitrile]	85%	3.7%	0.8%	2.5%	9.9%	0.35%	0.55%	0.9%	11%	58%	18%	73%	93%	96%	3.4%
CNc1nc(Nc2ccc(C(=O)N3CCOCC3)cc2OC)nc2[nH]cc(C#N)c12 [Example 1, 2-((2-methoxy-4-(morpholine-4-carbonyl)phenyl)amino)-4-(methylamino)-7H-pyrrolo[2,3-d]pyrimidine-5-carbonitrile]	75%	63%	22%	99%	85%	84%	81%	94%	13%	100%	61%	97%	81%	94%	79%
